Experimental data: patent publication US20260130856A1, “LIPOSOME COMPOSITIONS FOR DELIVERY OF COMPOUNDS AND METHODS THEREOF” (NanoTech Pharma Inc., priority 2022, published 2026)

Assay: In vivo pharmacokinetics study of carfilzomib formulations, plasma carfilzomib by LC-MS
Conditions: BALB/c nude, mouse, mice, intravenous via tail vein, 5.0 mg/kg
Protocol: The carfilzomib-loaded liposome was prepared based on the description in Example 17. In-vivo pharmacokinetics study was carried out in BALB/c nude mice. Carfilzomib drug solution (free drug) and liposomal carfilzomib were administered intravenously via the tail vein into the mice and the plasma concentration of carfilzomib of both formulations were monitored over time by LC-MS. The injection dose of both drug formulations was 5.0 mg/kg. After intravenous administration, blood was collected at pre-determined time points (3 mice per time point) and was placed into EDTA coated micro containers. The samples were then centrifuged to separate plasma. Plasma levels of carfilzomib were quantified by using LC-MS. PK parameters were then calculated from measured drug plasma concentrations over time.

CC(C)C[C@H](NC(=O)[C@H](CCc1ccccc1)NC(=O)CN1CCOCC1)C(=O)N[C@@H](Cc1ccccc1)C(=O)N[C@@H](CC(C)C)C(=O)[C@@]1(C)CO1 [Free carfilzomib, carfilzomib]
AUC(0-t): 486 ng·h/mL
clearance: 170 mL/min/kg
half-life: 19.2 min
Vd (read-out: Vdss): 5.36 L/kg
